Laboratory results published in patent US20250188110A1, “SPECIFIC SMALL MOLECULE INHIBITORS THAT BLOCK KMT9 METHYLTRANSFERASE ACTIVITY AND FUNCTION” (ALBERT-LUDWIGS-UNIVERSITÄT FREIBURG, priority 2021, published 2025).
Where two headings read alike, the source gives them in different places.

Tests used:
[1] = biological target: T1, KMT9 (Homo sapiens, UniProt Q9Y5N5); experiment: KMT9 methyltransferase inhibition assay, MTaseGlo luminescence (from entry 155); type: biochemical; details: 100 nM KMT9, 5 μM ETF1, 1 μM SAM
T1 sequence (Q9Y5N5 1-214): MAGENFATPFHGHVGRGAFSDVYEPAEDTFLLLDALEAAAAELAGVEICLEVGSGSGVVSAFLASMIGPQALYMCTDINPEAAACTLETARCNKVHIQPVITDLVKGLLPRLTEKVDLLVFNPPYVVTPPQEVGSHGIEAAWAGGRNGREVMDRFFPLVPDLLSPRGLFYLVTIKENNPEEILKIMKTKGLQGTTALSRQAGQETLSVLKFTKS
T1 sequence (Q9UI30 1-120 isoform Q9UI30-2 partner): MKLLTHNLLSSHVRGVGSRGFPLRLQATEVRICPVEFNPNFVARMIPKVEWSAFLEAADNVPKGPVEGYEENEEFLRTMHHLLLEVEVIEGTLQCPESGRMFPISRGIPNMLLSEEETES
In short: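 KMT9 (100 nM final) pre-incubated with inhibitor for 15 min at room temperature, then reacted with 5 μM ETF1 and 1 μM SAM for 2 h at 30° C. at 2% DMSO final. MTaseGlo luminescence read after 60 min detection; IC50 reported in four potency bins.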

[2] = biological target: T1, KMT9; experiment: Microscale thermophoresis (MST) KMT9 binding
In short: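 His-tagged KMT9 (20 nM), RED-Tris-NTA labelled, titrated with varying compound concentrations in 25 mM HEPES pH 7.5, 100 mM NaCl, 1 mM DTT, 0.05% Tween. MST at 40% MST and 100% LED power, Nano-RED excitation; Kd binned A ≤10 nM, B 10–100, C 100–1000, D >1000 nM.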

[3] = biological target: T1, KMT9; experiment: KMT9 thermal shift assay (SyproOrange); type: binding
In short: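 Recombinant KMT9 was incubated with compound and SyproOrange at 25° C in 50 mM BTP pH 8.5, 1 mM MgCl2, 1 mM DTT. It was then heated from 20° C to 95° C at 1° C per 15 s with fluorescence read each step. Tm came from a Boltzmann sigmoidal fit; ΔTm relative to DMSO control, binned in 5 K ranges.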

[4] = MTaseGlo procedure (entries from 155), read-out: Inhibition (IC50)
[5] = His-tag labelled KMT9 20 nM, read-out: MST (Kd)
[6] = 500 µM compound, 2 μM KMT9, read-out: Thermal shift (ΔTm)
[7] = IC50 class, MTaseGlo procedure (entries from 155 on), read-out: Inhibition
[8] = His-tag labelled KMT9 20 nM, Kd class, read-out: MST
[9] = ΔTm class, 500 uM compound, 2 μM KMT9, read-out: Thermal shift
[10] = from entry 155: MTaseGlo assay, read-out: Inhibition
[11] = microscale thermophoresis, His-tag labelled KMT9 (20 nM), read-out: MST
[12] = ΔTm, 500 µM compound, 2 μM KMT9, 5X SO, read-out: Thermal shift

SMILES | IC50 [1, 4] | Kd [2, 5] | ΔTm at 500 µM [3, 6] | IC50 [1, 7] | Kd [2, 8] | ΔTm at 500 µM [3, 9] | also measured
Nc1nc(Cl)nc2c1c(-c1nccs1)cn2[C@@H]1C[C@H](C2CCN(CCc3ccncc3)CC2)[C@@H](O)[C@H]1O [Compound 514, (1R,2S,3R,5R)-3-[4-amino-2-chloro-5-(1,3-thiazol-2-yl)pyrrolo[2,3-d]pyrimidin-7-yl]-5-{1-[2-(pyridin-4-yl)ethyl]piperidin-4-yl}cyclopentane-1,2-diol] | 100 to 1000 nM | ≤ 10 nM | 15 to 20 °C |  |  |  | 
Nc1ncnc2c1c(-c1nc(Cc3ccccc3)cs1)cn2[C@@H]1C[C@H](C2=CCCNC2)[C@@H](O)[C@H]1O [Compound 503, (1R,2S,3R,5R)-3-(4-amino-5-(4-benzylthiazol-2-yl)-7H-pyrrolo[2,3-d]pyrimidin-7-yl)-5-(1,2,5,6-tetrahydropyridin-3-yl)cyclopentane-1,2-diol] |  |  |  |  |  |  | IC50 [1, 10]: 1000 to 10000 nM; Kd [2, 11]: 100 to 1000 nM; ΔTm at 500 µM [3, 12]: 15 to 20 °C
O[C@@H]1[C@H](O)[C@@H](C2CCN(CC3CC3)CC2)C[C@H]1n1cc(-c2nc(Cc3ccccc3)cs2)c2cnc(Cl)nc21 [Compound 497, (1R,2S,3R,5R)-3-(5-(4-Benzylthiazol-2-yl)-2-chloro-7H-pyrrolo[2,3-d]pyrimidin-7-yl)-5-(1-(cyclopropylmethyl)piperidin-4-yl)cyclopentane-1,2-diol] |  |  |  | 1000 to 10000 nM | 10 to 100 nM | 10 to 15 °C | 
CCN1CCC([C@H]2C[C@@H](n3cc(-c4nc(Cc5ccccc5)cs4)c4c(N)nc(Cl)nc43)[C@H](O)[C@@H]2O)CC1 [Compound 504, (1R,2S,3R,5R)-3-[4-amino-5-(4-benzyl-1,3-thiazol-2-yl)-2-chloropyrrolo[2,3-d]pyrimidin-7-yl]-5-(1-ethylpiperidin-4-yl)cyclopentane-1,2-diol] |  |  |  | 100 to 1000 nM | ≤ 10 nM | > 20 °C | 
CN(CCCNCCc1ccc(F)cc1)C[C@H]1C[C@@H](n2cc(-c3ccccc3)c3c(N)nc(Cl)nc32)[C@H](O)[C@@H]1O [Compound 575, (1R,2S,3R,5R)-3-(4-amino-2-chloro-5-phenyl-7H-pyrrolo[2,3-d]pyrimidin-7-yl)-5-(((3-((4-fluorophenethyl)amino)propyl)(methyl)amino)methyl)cyclopentane-1,2-diol] | 100 to 1000 nM | ≤ 10 nM | 15 to 20 °C |  |  |  | 
CN1CCC([C@H]2C[C@@H](n3cc(-c4nc(Cc5ccccc5)cs4)c4cnc(Cl)nc43)[C@H](O)[C@@H]2O)CC1 [Compound 496, (1R,2S,3R,5R)-3-(5-(4-benzylthiazol-2-yl)-2-chloro-7H-pyrrolo[2,3-d]pyrimidin-7-yl)-5-(1-methylpiperidin-4-yl)cyclopentane-1,2-diol] |  |  |  | 1000 to 10000 nM | 10 to 100 nM | 15 to 20 °C | 
CC(=O)c1cccc([C@H]2C[C@@H](n3ccc4c(N)ncnc43)[C@H](O)[C@@H]2O)c1 [Compound 408, 1-(3-((1R,2R,3S,4R)-4-(4-amino-7H-pyrrolo[2,3-d]pyrimidin-7-yl)-2,3-dihydroxycyclopentyl)phenyl)ethan-1-one] | > 10000 nM | > 1000 nM | ≤ 10 °C |  |  |  | 
CCN(CCCNCCc1ccc(F)cc1)C[C@H]1C[C@@H](n2cc(-c3ccccc3)c3c(N)nc(Cl)nc32)[C@H](O)[C@@H]1O [Compound 568, (1R,2S,3R,5R)-3-(4-amino-2-chloro-5-phenyl-7//-pyrrolo[2,3-d]pyrimidin-7-yl)-5-((ethyl(3-((4-fluorophenethyl)amino)propyl)amino)methyl)cyclopentane-1,2-diol] |  |  |  | 100 to 1000 nM | 10 to 100 nM | > 20 °C | 
Nc1ncnc2c1c(-c1nc(Cc3ccccc3)cs1)cn2[C@@H]1C[C@H]([C@@H]2CCCNC2)[C@@H](O)[C@H]1O (single isomer, unassigned) [Compound 593R] |  |  |  |  |  |  | IC50 [1, 10]: 1000 to 10000 nM; Kd [2, 11]: 100 to 1000 nM; ΔTm at 500 µM [3, 12]: 15 to 20 °C
Nc1nc(Cl)nc2c1c(-c1nccs1)cn2[C@@H]1CC(CN(CCCNCCc2ccc(F)cc2)c2cn[nH]c2)[C@@H](O)[C@H]1O (single isomer, unassigned) [Compound 543] | 100 to 1000 nM | ≤ 10 nM | > 20 °C |  |  |  | 
Nc1nc(Cl)nc2c1c(-c1ccccc1)cn2[C@@H]1C[C@H](CNCCCNCCc2ccc(F)cc2)[C@@H](O)[C@H]1O [Compound 566, (1R,2S,3R,5R)-3-(4-amino-2-chloro-5-phenyl-7/pyrrolo[2,3-d]pyrimidin-7-yl)-5-(( (3-((4-fluorophenethyl)amino)propyl)amino)methyl)cyclopentane-1,2-diol] |  |  |  | 100 to 1000 nM | ≤ 10 nM | > 20 °C | 

More lines, main results first:

IC50 [1, 4] | Kd [2, 5] | ΔTm at 500 µM [3, 6] | IC50 [1, 7] | Kd [2, 8] | ΔTm at 500 µM [3, 9] | SMILES | also measured
 |  |  | 1000 to 10000 nM | 100 to 1000 nM | 10 to 15 °C | Nc1ncnc2c1c(-c1nc(Cc3ccccc3)cs1)cn2[C@@H]1C[C@H]([C@H]2CCNC2)[C@@H](O)[C@H]1O [Compound 589R, (1R,2S,3R,5R)-3-[4-Amino-5-(4-benzyl-1,3-thiazol-2-yl)pyrrolo[2,3-d]pyrimidin-7-yl]-5-[(3R)-pyrrolidin-3-yl]cyclopentane-1,2-diol] | 
< 100 nM | ≤ 10 nM | 15 to 20 °C |  |  |  | NCc1cccc([C@H]2C[C@@H](n3ccc4c(N)nc(Cl)nc43)[C@H](O)[C@@H]2O)c1 [Compound 660, (1R,2S,3R,5R)-3-{4-Amino-2-chloropyrrolo[2,3-d]pyrimidin-7-yl}-5-[3-(aminomethyl)phenyl]cyclopentane-1,2-diol] | 
1000 to 10000 nM | 10 to 100 nM | 10 to 15 °C |  |  |  | COc1cc(OC)cc([C@H]2C[C@@H](n3cc(Br)c4c(N)nc(Cl)nc43)[C@H](O)[C@@H]2O)c1 [Compound 677, (1R,2S,3R,5R)-3-{4-amino-5-bromo-2-chloropyrrolo[2,3-d]pyrimidin-7-yl}-5-(3,5-dimethoxyphenyl)cyclopentane-1,2-diol] | 
1000 to 10000 nM | ≤ 10 nM | 10 to 15 °C |  |  |  | O[C@@H]1[C@H](O)C(CNCCCNCCc2ccc(F)cc2)C[C@H]1n1cc(-c2cccs2)c2cnc(Cl)nc21 (mixture of isomers) [Compound 581, (1R,2S,3R)-3-(2-chloro-5-(thiophen-2-yl)-7H pyrrolo[2,3-d]pyrimidin-7-yl)-5-(((3-((4-fluorophenethyl)amino)propyl)amino)methyl)cyclopentane-1,2-diol] | 
 |  |  | 1000 to 10000 nM | 10 to 100 nM | 15 to 20 °C | CN(CCCNCCc1ccc(F)cc1)C[C@H]1C[C@@H](n2cc(-c3ccn(Cc4ccccc4)n3)c3cnc(Cl)nc32)[C@H](O)[C@@H]1O [Compound 642, (1R,2S,3R,5R)-3-[5-(1-Benzylpyrazol-3-yl)-2-chloropyrrolo[2,3-d]pyrimidin-7-yl]-5-{[(3-{[2-(4-fluorophenyl)ethyl]amino}propyl)(methyl)amino]methyl}cyclopentane-1,2-diol] | 
1000 to 10000 nM | > 1000 nM | ≤ 10 °C |  |  |  | NCCc1cccc([C@H]2C[C@@H](n3ccc4c(N)ncnc43)[C@H](O)[C@@H]2O)c1 [Compound 592, (1S,2R,3R,5R)-3-[3-(2-Aminoethyl)phenyl]-5-{4-aminopyrrolo[2,3-d]pyrimidin-7-yl}cyclopentane-1,2-diol] | 
100 to 1000 nM | 10 to 100 nM | 10 to 15 °C |  |  |  | COc1cc([C@H]2C[C@@H](n3cc(Br)c4c(N)nc(Cl)nc43)[C@H](O)[C@@H]2O)ccn1 [Compound 680, (1R,2S,3R,5R)-3-(4-amino-5-bromo-2-chloro-7H-pyrrolo[2,3-d]pyrimidin-7-yl)-5-(2-methoxypyridin-4-yl)cyclopentane-1,2-diol] | 
 |  |  | > 10000 nM | > 1000 nM | ≤ 10 °C | O[C@@H]1[C@@H](CNCCCNCCc2ccc(C(F)(F)F)cc2)C[C@@H](n2cc(-c3cc(Cc4ccccc4)cs3)c3cncnc32)[C@@H]1O [Compound 619, (1R,2S,3R,5R)-3-(5-(4-Benzylthiophen-2-yl)-7H-pyrrolo[2,3-d]pyrimidin-7-yl)-5-(((3-((4-(trifluoromethyl)phenethyl)amino)propyl)amino)methyl)cyclopentane-1,2-diol] | 
100 to 1000 nM | 10 to 100 nM | > 20 °C |  |  |  | CN(CCCNCCc1ccc(F)cc1)C[C@H]1C[C@@H](n2cc(-c3ccn(C)n3)c3c(N)nc(Cl)nc32)[C@H](O)[C@@H]1O [Compound 645, (1R,2S,3R,5R)-3-[4-Amino-2-chloro-5-(1-methylpyrazol-3-yl)pyrrolo[2,3-d]pyrimidin-7-yl]-5-{[(3-{[2-(4-fluorophenyl)ethyl]amino}propyl)(methyl)amino]methyl}cyclopentane-1,2-diol] | 
